Measured values: PubChem BioAssay AID212 (DTP/NCI, 2004)
“And” between values parts separate entries of the source, which are not always exact repeats. Identical values can stand only once. Results filed as inconclusive are left out.

Test system: BDF1 mice, colon carcinoma 38 sc, T/C %
Assay: NCI In Vivo Anticancer Drug Screen. Data for tumor model Colon Carcinoma 38 (subcutaneous) in B6D2F1 (BDF1) mice
Procedure, shortened: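 Mice with transplanted tumors are treated with compound or vehicle. Survival or tumor size is then measured in both groups. The ratio of treated to control gives the reported figure.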

With O=C1c2c(O)ccc(O)c2C(=O)c2c(NCCNCCO)ccc(NCCNCCO)c21 the T/C (endpoint: median survival time, dose: 1.0 mg/kg/injection, schedule: Q04DX004 (ip), vehicle: acid diluted with saline, higher = longer survival) was 96 % of control, the T/C (endpoint: median survival time, dose: 2.3 mg/kg/injection, schedule: Q07DX004 (iv), vehicle: water, higher = longer survival) was 153 % of control and the T/C (endpoint: median survival time, dose: 3.7 mg/kg/injection, schedule: Q07DX004 (iv), vehicle: water, higher = longer survival) was 176 % of control. For the same compound, the T/C (endpoint: median survival time, dose: 4.0 mg/kg/injection, schedule: Q04DX004 (ip), vehicle: acid diluted with saline, higher = longer survival) was 117 % of control, the T/C (endpoint: median survival time, dose: 6.0 mg/kg/injection, schedule: Q07DX004 (iv), vehicle: water, higher = longer survival) was 199 % of control and the T/C (endpoint: median tumor weight (est.), dose: 0.5 mg/kg/injection, schedule: Q07DX002 (ip), vehicle: water, higher = larger tumour) was 92 % of control and 100 % of control and 102 % of control. For the same compound, the T/C (endpoint: median tumor weight (est.), dose: 1.0 mg/kg/injection, schedule: Q07DX002 (ip), vehicle: acid diluted with saline, higher = larger tumour) was 76 % of control, the T/C (endpoint: median tumor weight (est.), dose: 2.0 mg/kg/injection, schedule: Q07DX002 (ip), vehicle: acid diluted with saline, higher = larger tumour) was 49 % of control and the T/C (endpoint: median tumor weight (est.), dose: 3.0 mg/kg/injection, schedule: Q07DX003 (ip), vehicle: saline with Tween-80, higher = larger tumour) was 72 % of control. The T/C (endpoint: median tumor weight (est.), dose: 3.0 mg/kg/injection, schedule: Q07DX003 (iv), vehicle: acid diluted with saline, higher = larger tumour) was 11 % of control and the T/C (endpoint: median tumor weight (est.), dose: 4.0 mg/kg/injection, schedule: Q07DX002 (ip), vehicle: acid diluted with saline, higher = larger tumour) was 55 % of control.
With Nc1nc2n[nH]nc2c(=O)[nH]1 the T/C (endpoint: median tumor weight (est.), dose: 50.0 mg/kg/injection, schedule: Q07DX002 (ip), vehicle: suspension in saline, higher = larger tumour) was 64 % of control, the T/C (endpoint: median tumor weight (est.), dose: 100.0 mg/kg/injection, schedule: Q07DX002 (ip), vehicle: suspension in saline, higher = larger tumour) was 80 % of control and the T/C (endpoint: median tumor weight (est.), dose: 200.0 mg/kg/injection, schedule: Q07DX002 (ip), vehicle: suspension in saline, higher = larger tumour) was 57 % of control. For the same compound, the T/C (endpoint: median tumor weight (est.), dose: 400.0 mg/kg/injection, schedule: Q07DX002 (ip), vehicle: suspension in saline, higher = larger tumour) was 51 % of control.
CC(=O)Oc1c[nH]c(=O)[nH]c1=O was tested, and the T/C (endpoint: median tumor weight (est.), dose: 50.0 mg/kg/injection, schedule: Q07DX002 (ip), vehicle: distilled water + Tween-80, higher = larger tumour) was 107 % of control, the T/C (endpoint: median tumor weight (est.), dose: 100.0 mg/kg/injection, schedule: Q07DX002 (ip), vehicle: distilled water + Tween-80, higher = larger tumour) was 108 % of control and 121 % of control and the T/C (endpoint: median tumor weight (est.), dose: 400.0 mg/kg/injection, schedule: Q07DX002 (ip), vehicle: distilled water + Tween-80, higher = larger tumour) was 124 % of control. For the same compound, the T/C (endpoint: median tumor weight (est.), dose: 800.0 mg/kg/injection, schedule: Q07DX002 (ip), vehicle: distilled water + Tween-80, higher = larger tumour) was 121 % of control and 102 % of control.
For O=C1CN(Cc2ccc3c(c2)OCO3)NO1, the T/C (endpoint: median tumor weight (est.), dose: 12.5 mg/kg/injection, schedule: Q07DX002 (ip), vehicle: saline with Tween-80, higher = larger tumour) was 76 % of control and 89 % of control and the T/C (endpoint: median tumor weight (est.), dose: 25.0 mg/kg/injection, schedule: Q07DX002 (ip), vehicle: saline with Tween-80, higher = larger tumour) was 81 % of control and 84 % of control.
In the case of Cc1cn(C2CC3[O][Sn]([c]4ccccc4)([c]4ccccc4)[O]CC3O2)c(=O)[nH]c1=O (configuration not stated), the T/C (endpoint: median tumor weight (est.), dose: 12.5 mg/kg/injection, schedule: Q07DX002 (ip), vehicle: saline, higher = larger tumour) is reported as 110 % of control, the T/C (endpoint: median tumor weight (est.), dose: 25.0 mg/kg/injection, schedule: Q07DX002 (ip), vehicle: saline, higher = larger tumour) is reported as 100 % of control and the T/C (endpoint: median tumor weight (est.), dose: 50.0 mg/kg/injection, schedule: Q07DX002 (ip), vehicle: saline, higher = larger tumour) is reported as 95 % of control. The T/C (endpoint: median tumor weight (est.), dose: 100.0 mg/kg/injection, schedule: Q07DX002 (ip), vehicle: saline, higher = larger tumour) was 110 % of control and the T/C (endpoint: median tumor weight (est.), dose: 200.0 mg/kg/injection, schedule: Q07DX002 (ip), vehicle: saline, higher = larger tumour) was 99 % of control.
CC(=O)[C@]1(O)Cc2c(O)c3c(c(O)c2[C@@H](OC2CC(N)C(O)C(C)O2)C1)C(=O)c1c(O)cccc1C3=O (some centres not stated) was tested, and the T/C (endpoint: median survival time, dose: 0.7 mg/kg/injection, schedule: Q07DX003 (iv), vehicle: water, higher = longer survival) was 87 % of control, the T/C (endpoint: median survival time, dose: 1.7 mg/kg/injection, schedule: Q07DX003 (iv), vehicle: water, higher = longer survival) was 107 % of control and the T/C (endpoint: median survival time, dose: 2.7 mg/kg/injection, schedule: Q07DX003 (iv), vehicle: water, higher = longer survival) was 176 % of control.
In the case of Nc1ccc(C(=O)O)c(O)c1, the T/C (endpoint: median tumor weight (est.), dose: 42.0 mg/kg/injection, schedule: Q07DX002 (ip), vehicle: saline with Tween-80, higher = larger tumour) is reported as 120 % of control, the T/C (endpoint: median tumor weight (est.), dose: 84.0 mg/kg/injection, schedule: Q07DX002 (ip), vehicle: saline with Tween-80, higher = larger tumour) is reported as 89 % of control and the T/C (endpoint: median tumor weight (est.), dose: 168.0 mg/kg/injection, schedule: Q07DX002 (ip), vehicle: saline with Tween-80, higher = larger tumour) is reported as 93 % of control. For the same compound, the T/C (endpoint: median tumor weight (est.), dose: 337.0 mg/kg/injection, schedule: Q07DX002 (ip), vehicle: saline with Tween-80, higher = larger tumour) was 80 % of control and the T/C (endpoint: median tumor weight (est.), dose: 675.0 mg/kg/injection, schedule: Q07DX002 (ip), vehicle: saline with Tween-80, higher = larger tumour) was 111 % of control.
For CSCS(=O)C[C@H](CO)NC(=O)/C=C/c1c(C)[nH]c(=O)[nH]c1=O (some centres not stated), the T/C (endpoint: median tumor weight (est.), dose: 0.25 mg/kg/injection, schedule: Q07DX002 (ip), vehicle: saline, higher = larger tumour) was 110 % of control and 86 % of control, the T/C (endpoint: median tumor weight (est.), dose: 2.0 mg/kg/injection, schedule: Q07DX002 (ip), vehicle: saline, higher = larger tumour) was 105 % of control and the T/C (endpoint: median tumor weight (est.), dose: 4.0 mg/kg/injection, schedule: Q07DX002 (ip), vehicle: saline, higher = larger tumour) was 62 % of control and 74 % of control.
